Earlier results, collected in the CATMoS acute toxicity set (Mansouri et al. 2021).
Values joined by “and” are separate entries in the source; they are usually repeats but may differ in a detail not shown here. Identical values can stand only once.

Experiment: rat acute oral toxicity
Conditions: in vivo

Q: Which LD50 does the source give for CCN(CC)C(C)C(=O)c1ccccc1 (stereo not given) here?
A: The LD50 was 400 mg/kg.

Q: For Cc1c(CC(=O)O)c2ccccc2n1C(=O)c1ccccc1, which LD50 is on record?
A: The LD50 was 362 mg/kg.

Q: Which LD50 does the source give for CCC(C)c1ccc(O)cc1 (stereo not given) here?
A: Its LD50 is 2450 mg/kg.

Q: For CCCC=C(CC)C(=O)O, which LD50 is on record?
A: Its LD50 is 5660 mg/kg.

Q: With CCCCN(CCO)CCCC as the compound, how does the LD50 read?
A: Its LD50 is 1070 mg/kg.

Q: For COc1ccc(CNCC(O)COc2ccc3[nH]c(=O)ccc3c2)cc1OC (stereo not given), which LD50 is on record?
A: Its LD50 is 1500 mg/kg.

Q: With CC(=O)CNC(C)(C)Cc1ccc(Cl)cc1 as the compound, how does the LD50 read?
A: The LD50 was 250 mg/kg.

Q: With COB1OB(OC)OB(OC)O1 as the compound, how does the LD50 read?
A: The LD50 was 5160 mg/kg.

Q: With CCCCCCC#CC(=O)OC as the compound, how does the LD50 read?
A: Its LD50 is 2220 mg/kg.

Q: For COP(=O)(OC)OC(c1ccc(Cl)cc1)P(=O)(OC)OC (stereo not given), which LD50 is on record?
A: The LD50 was 3200 mg/kg.

Q: Which LD50 does the source give for CCN(CCN(C)C)c1ccccc1 here?
A: Its LD50 is 1150 mg/kg.

Q: With CCOP(=S)(OCC)OC(C)C as the compound, how does the LD50 read?
A: Its LD50 is 1000 mg/kg.

Q: Which LD50 does the source give for COc1ccc(N)cc1OC here?
A: The LD50 was 681 mg/kg.

Q: Which LD50 does the source give for C[n+]1ccccc1 here?
A: The LD50 was 285 mg/kg.

Q: Which LD50 does the source give for CCCCNCC(O)COc1ccc(-c2c(-c3ccccc3)c(=O)oc3cc(OC)ccc23)cc1 (stereo not given) here?
A: Its LD50 is 500 mg/kg.

Q: Which LD50 does the source give for CCc1c(C)[nH]c2c1C(=O)C(CN1CCOCC1)CC2 (stereo not given) here?
A: The LD50 was 261 mg/kg.

Q: With C[N+](C)(C)[O-] as the compound, how does the LD50 read?
A: Its LD50 is 8700 mg/kg.

Q: Which LD50 does the source give for NNC(=O)CSc1cc(Oc2ccc(F)cc2)ncn1 here?
A: Its LD50 is 400 mg/kg.

Q: Which LD50 does the source give for CC(C)NC1CCC(c2ccccc2)(c2ccccc2)CC1 here?
A: The LD50 was 623 mg/kg.

Q: With FC1(F)C(Cl)=C(Cl)C(F)(F)C1(F)F as the compound, how does the LD50 read?
A: The LD50 was 280 mg/kg.

Q: For Nc1cc2c(S(=O)(=O)O)cc(S(=O)(=O)O)cc2cc1S(=O)(=O)O, which LD50 is on record?
A: Its LD50 is 13000 mg/kg.

Q: Which LD50 does the source give for C=CCOc1ccccc1C(=O)N(C)C here?
A: The LD50 was 740 mg/kg.

Q: For COc1ccc(OC)c(CC(C)N)c1 (racemic), which LD50 is on record?
A: Its LD50 is 171 mg/kg.

Q: With Cc1cc(=O)oc2cc(O)ccc12 as the compound, how does the LD50 read?
A: The LD50 was 3850 mg/kg.

Q: With O=P(O)(O)CCCl as the compound, how does the LD50 read?
A: Its LD50 is 2200 mg/kg.

Q: With CCOP(=O)(O)O as the compound, how does the LD50 read?
A: The LD50 was 1600 mg/kg.

Q: With Cc1ccc(C)c(CCNC(N)=O)c1 as the compound, how does the LD50 read?
A: Its LD50 is 2300 mg/kg.

Q: For ClCCN1CCCC(C(c2ccccc2)c2ccccc2)C1 (stereo not given), which LD50 is on record?
A: The LD50 was 970 mg/kg.

Q: Which LD50 does the source give for O[C@H]([C@H](O)[C@@H]1CO1)[C@H]1CO1 (racemic) here?
A: The LD50 was 14 mg/kg.

Q: With CN(C)CCC(O)(c1ccccc1)c1ccccc1Cl (stereo not given) as the compound, how does the LD50 read?
A: The LD50 was 350 mg/kg.

Q: For CC(C)CCOC(=O)c1ccccc1, which LD50 is on record?
A: Its LD50 is 6330 mg/kg.

Q: Which LD50 does the source give for CC(C)CC(=O)OCCc1ccccc1 here?
A: Its LD50 is 6220 mg/kg.

Q: Which LD50 does the source give for C=COCCOC here?
A: Its LD50 is 3900 mg/kg.

Q: With COP(=O)(OC)OC1=C(Cl)C2C=CCC12 (stereo not given) as the compound, how does the LD50 read?
A: Its LD50 is 96 mg/kg.

Q: Which LD50 does the source give for CC(C)(C)c1cc(Br)c2nc(C(F)(F)F)[nH]c2c1 here?
A: The LD50 was 161 mg/kg.

Q: For O=c1[nH]c(=O)n([C@H]2C[C@H](O)[C@@H](CO)O2)cc1F, which LD50 is on record?
A: Its LD50 is 215 mg/kg.

Q: With c1ccc([Se]c2ccccc2)cc1 as the compound, how does the LD50 read?
A: Its LD50 is 360 mg/kg.

Q: For C=CC=CC=CCCCCC, which LD50 is on record?
A: Its LD50 is 7560 mg/kg.

Q: With COC(=O)C1CCCCC1 as the compound, how does the LD50 read?
A: Its LD50 is 3880 mg/kg.

Q: Which LD50 does the source give for O=C(O)C[C@H](NC(=O)COc1ccc(Cl)cc1Cl)C(=O)O here?
A: Its LD50 is 1000 mg/kg.

Q: With C=C(C)c1ccccc1 as the compound, how does the LD50 read?
A: Its LD50 is 4900 mg/kg.

Q: For CC1CN(C2CCCCCCCCCCC2)CC(C)O1 (stereo not given), which LD50 is on record?
A: The LD50 was 2640 mg/kg and 2500 mg/kg.

Q: With CC(Oc1cccc2ccccc12)C(N)N=O (stereo not given) as the compound, how does the LD50 read?
A: The LD50 was 108 mg/kg.

Q: With CCO/N=C(\OC(=O)c1ccccc1)c1c(OC)ccc(Cl)c1OC as the compound, how does the LD50 read?
A: Its LD50 is 15000 mg/kg.

Q: For CC(C)(C)OC(=O)N1CC(=O)C1, which LD50 is on record?
A: The LD50 was 2500 mg/kg.

Q: For Cc1cc(Cl)ccc1OCCCC(=O)O, which LD50 is on record?
A: The LD50 was 700 mg/kg.

Q: With COC(=O)[C@@](C)(N)Cc1ccc(O)c(C)c1 as the compound, how does the LD50 read?
A: Its LD50 is 1400 mg/kg.

Q: For CCCCCOC(C[n+]1ccccc1)c1ccc(C2CCCC2)cc1 (stereo not given), which LD50 is on record?
A: Its LD50 is 250 mg/kg.

Q: Which LD50 does the source give for Clc1cccc(SCc2nn[nH]n2)c1 here?
A: Its LD50 is 2200 mg/kg.

Q: Which LD50 does the source give for CC(C)CCC(C)Nc1ccc(NC(C)CCC(C)C)cc1 (stereo not given) here?
A: The LD50 was 750 mg/kg.

Q: For O=S(=O)(O)c1ccc2c(Cc3cccc4cc(S(=O)(=O)O)ccc34)cccc2c1, which LD50 is on record?
A: Its LD50 is 3800 mg/kg.

Q: With CCOC(=S)C=Cc1ccc2c(c1)OCO2 as the compound, how does the LD50 read?
A: The LD50 was 940 mg/kg.

Q: For C[C@H](CCC(=O)O)[C@H]1CC[C@H]2[C@@H]3[C@H](O)C[C@@H]4C[C@H](O)CC[C@]4(C)[C@H]3CC[C@]12C, which LD50 is on record?
A: The LD50 was 4000 mg/kg.

Q: With CCC(=C(c1ccc(OCCN(C)C)cc1)c1ccc(OP(=O)(O)O)cc1)c1ccc(C(C)C)cc1 as the compound, how does the LD50 read?
A: The LD50 was 785 mg/kg.

Q: Which LD50 does the source give for Cc1cc(C)n(SC(Cl)(Cl)Cl)n1 here?
A: The LD50 was 570 mg/kg.

Q: For O=C1NCC2(CCN(CCc3ccccc3)CC2)O1, which LD50 is on record?
A: The LD50 was 980 mg/kg and 437 mg/kg.

Q: With CN1CC2=C(C1)CN(c1c(F)cc3c(=O)c(C(=O)O)cn(C4CC4)c3c1F)C2 as the compound, how does the LD50 read?
A: The LD50 was 1060 mg/kg.

Q: For CCc1nc(N)nc(N)c1-c1ccc(Cl)cc1, which LD50 is on record?
A: Its LD50 is 440 mg/kg.

Q: For C1CS1, which LD50 is on record?
A: Its LD50 is 178 mg/kg.

Q: Which LD50 does the source give for CC(C)NP(O)(=S)Oc1cc(Cl)c(Cl)cc1Cl (stereo not given) here?
A: Its LD50 is 31 mg/kg.

Q: With CCN(CC(F)(F)F)N=O as the compound, how does the LD50 read?
A: The LD50 was 960 mg/kg.

Q: For O=C1OCCO1, which LD50 is on record?
A: The LD50 was 10000 mg/kg.

Q: Which LD50 does the source give for CN(CCC#N)CCC#N here?
A: Its LD50 is 890 mg/kg.

Q: Which LD50 does the source give for C1COCCOCCOCCO1 here?
A: Its LD50 is 2830 mg/kg.

Q: Which LD50 does the source give for CCc1ccccc1N here?
A: Its LD50 is 1260 mg/kg.

Q: For COc1cc(-n2ccnc2)ncn1, which LD50 is on record?
A: Its LD50 is 400 mg/kg.

Q: Which LD50 does the source give for CN1CC(O)N(c2nnc(C(C)(C)C)s2)C1=O (stereo not given) here?
A: Its LD50 is 1540 mg/kg.

Q: With C#CC(C)(C)N as the compound, how does the LD50 read?
A: The LD50 was 1470 mg/kg.

Q: Which LD50 does the source give for CCN=c1nc(Cl)[nH]c(=NC(C)CC)[nH]1 (stereo not given) here?
A: Its LD50 is 3000 mg/kg.

Q: For CC(=O)O[C@]1(C)CC[C@@]23C[C@@H]1C(C)(C)[C@@H]2CC[C@H]3C, which LD50 is on record?
A: The LD50 was 44800 mg/kg.

Q: With CCOC=C(C(=O)OCC)C(=O)OCC as the compound, how does the LD50 read?
A: Its LD50 is 925 mg/kg.

Q: With CC(C)(C=O)CO as the compound, how does the LD50 read?
A: Its LD50 is 3200 mg/kg.

Q: Which LD50 does the source give for Cc1c(C(=O)N(C)C)nnn1-c1ccccc1 here?
A: Its LD50 is 500 mg/kg.

Q: For Cc1c(Cl)c(Cl)c2nc(C(F)(F)F)[nH]c2c1Cl, which LD50 is on record?
A: The LD50 was 18.3 mg/kg.

Q: Which LD50 does the source give for CC1=CC(=O)OC1=O here?
A: Its LD50 is 2600 mg/kg.
